Read-outs that look alike come from different tables or passages of the source.
Experiments:
Assay type in all cases: physicochemical
[1] = Angle of repose from radius and height of the poured cone; conditions: tan^-1 (height/radius) of the cone after pouring
Text: The "angle of repose" is another parameter for indirectly quantifying powder flowability. It is the angle at which a material will rest on a stationary heap, specifically, is the angle formed by the heap slope and the horizontal plane. It may be calculated by different methods, commonly, just pouring the material on a flat surface. It also can be calculated as "drained angle of repose", as the angle measured on the internal conical face of a material which has been formed when drained from an orifice of a flat-bottomed container to the horizontal. A dynamic angle of repose can also be used, which is the angle to the horizontal of the free surface formed in a relatively slowly rotating drum (Aulton, op. cit., pg. 197).
In this case, the lower the value of the angle of repose, the higher the flowability of the material. It is generally considered that an angle of repose higher than 45 correlates with poor flowability, whereas an angle of repose under 30 correlates with excellent flowability.
The angle of repose was determined by measuring the radius and the height of the cone formed after pouring the powder, using the formula tan^-1 (height/radius).

[2] = Bulk density (PT-SV100 Scott Volumeter)
Text: The bulk density, also called apparent density, can be defined as the ratio of the mass to the volume of an untapped powder sample, as "poured". The bulk density is given in grams per millilitre (g/ml) and is typically calculated by "pouring" a known mass of powder into a graduated cylinder.
(§1) Bulk density and tapped density can be measured according to the method disclosed in the European Pharmacopoeia section 2.9.34 (Bulk density and tapped density of powders), for example, the bulk density may be measured using the PT-SV100 Scott Volumeter and the tapped density may be measured using the PT-TD200 Tap Density Tester (Pharma Test Apparatebau AG, Germany).
(§2) The bulk density was measured using a PT-SV100 Scott Volumeter (Pharma Test) and the tapped density was measured using a PT-TD200 Tap Density Tester (Pharma Test).

[3] = Aspect (visual appearance) of the powder or granules
Text: It can be observed that the non-compacted material has damp and agglomerated appearance, whereas the compacted product has dry, non-agglomerated, flowable appearance.

Particle size by sieving = conditions: compacted product passed through a sieve of 800 micron opening; 100% of the particles
Text: The compactor was connected to a rotor granulator for milling the outcoming compacted plaque. The granulation speed was fixed to 70 r.p.m. and the obtained granulate was passed through a sieve of 800 micron opening.

Flow rate = experiment: Flow rate
[4] = Carr index (compressibility) calculated from bulk and tapped density
Description: The Carr index, also called Carr's index or compressibility index, is calculated according to the following formula: Carr index = (Density (tapped)−Density (bulk))/(Density (tapped)) × 100 [formula]
Free flowing powders have smaller values of the Carr index than poor flowing powders. In general, a Carr index greater than 25 is considered to be an indication of poor flowability, and below 15, of good flowability.
(§3) The relationship between Carr index and/or Hausner ratio with powder flowability is well recognized in the art, for example, as disclosed by M. E. Aulton, in "Powder flow", chapter 12 of the well-recognized reference book in pharmaceutical technology "Aulton's Pharmaceutics. The design and manufacture of medicines", Fifth Edition 2018, M.E. Aulton and K.M.G. Taylor, Editors, Elsevier Ltd, as summarized in the following table: […]

[5] = Hausner ratio calculated from bulk and tapped density
Description: Hausner ratio is also predictive of powder flow, and is calculated according to the following formula: Hausner ratio = (Density (tapped))/(Density (bulk)) […] [formula]
In this case, a Hausner ratio greater than 1.34 is generally considered to be an indication of poor flowability.
as §3

[6] = Tapped density (PT-TD200 Tap Density Tester)
Description: On the other hand, tapped density, also called compacted density, of a powder is the ratio of the mass of the powder to the volume occupied by the powder after it has been tapped for a defined period of time. Tapped density is measured by first gently introducing a known sample mass into a graduated cylinder and carefully levelling the powder without compacting it. The cylinder is then mechanically tapped by raising the cylinder and allowing it to drop under its own weight using a suitable mechanical tapped density tester that provides a suitable fixed drop distance and nominal drop rate
as §1, §2

[7] = Handling observed during manufacture of capsules and tablets
Description: All ingredients were added to a Turbula mixer, blended during 15 minutes, and filled into capsules of 00 size.
Furthermore, the powder mixture was easily blended and good homogeneity was easily achieved, without segregation of the ingredients.
All ingredients were mixed in Turbula mixer during about 15 minutes and compressed into tablets.
The powder mixture was easily blended and had good homogeneity, without segregation of the ingredients.

[8] = general description of the starting material, 'for example' value

Angle of repose [1] | Bulk density [2] | bulk (or apparent) density [2, 8] | Bulk density ([2]; listed as coenzyme Q10 raw material) | particle size (Particle size by sieving) | Compressibility (Carr Index) [4] | Hausner ratio [5] | Tapped density [6] | tapped (or compacted) density [6, 8] | Bulk density ([2]; listed as compacted coenzyme Q10) | SMILES | Aspect [3] | Flow rate (Flow rate) | flowability and adherence during tablet preparation ([7]; 30 mg tablets by direct compression, Turbula mixer about 15 minutes) | flowability and adherence during capsule preparation ([7]; 100 mg hard gelatin capsules, Turbula mixer 15 minutes)
45° | 0.22 g/mL | about 0.22 mg/ml | 0.22 g/mL | less than 800 microns | 35.3% | 1.55 | 0.34 g/mL | about 0.34 mg/ml | – | COC1=C(OC)C(=O)C(C/C=C(\C)CC/C=C(\C)CC/C=C(\C)CC/C=C(\C)CC/C=C(\C)CC/C=C(\C)CC/C=C(\C)CC/C=C(\C)CC/C=C(\C)CCC=C(C)C)=C(C)C1=O [Non-compacted CoQ10 (starting material), 2-[(2E,6E,10E,14E,18E,22E,26E,30E,34E)-3,7,11,15,19,23,27,31,35,39-Decamethyltetraconta-2,6,10,14,18,22,26,30,34,38-decaenyl]-5,6-dimethoxy-3-methylcyclohexa-2,5-diene-1,4-dione] | Orange powder with damp, agglomerated appearance, hygroscopic | Slow, the material sticks to the walls | – | –
10° | 0.52 g/mL | – | – | less than 800 microns | 8.78% | 1.10 | 0.57 g/mL | – | 0.52 g/mL | COC1=C(OC)C(=O)C(C/C=C(\C)CC/C=C(\C)CC/C=C(\C)CC/C=C(\C)CC/C=C(\C)CC/C=C(\C)CC/C=C(\C)CC/C=C(\C)CC/C=C(\C)CCC=C(C)C)=C(C)C1=O [Compacted CoQ10 (Example 1), 2-[(2E,6E,10E,14E,18E,22E,26E,30E,34E)-3,7,11,15,19,23,27,31,35,39-Decamethyltetraconta-2,6,10,14,18,22,26,30,34,38-decaenyl]-5,6-dimethoxy-3-methylcyclohexa-2,5-diene-1,4-dione] | Orange granules without agglomerates, highly flowable and with dry appearance | Three times faster than for uncompacted CoQ10. The material does not stick to the walls | good flowability and did not adhere neither to the walls of vessels and mixers nor to the punches and dies of the tableting machine | good flowability and did not adhere to the walls of vessels and mixers

— EP4101442A1, “PROCESS FOR PREPARING COMPACTED COENZYME Q10 PARTICLES OF HIGH DENSITY AND IMPROVED FLOWABILITY” (Tradichem Industrial Services, S.L., priority 2021, dated 2022)
